# Data: paper PMC2228302, “Crystal structure of Leishmania tarentolae hypoxanthine-guanine phosphoribosyltransferase” (BMC Structural Biology, 2007)
# Read-outs that look alike come from different tables or passages of the source.
# Assays:
# Leishmania HGPRT = Leishmania HGPRT (Leishmania tarentolae, UniProt Q9NJI5, D188E/G191E/H176R/L189Y/T185D/V183G/V192L/W184M); assay: biochemical
# Procedure: The HGPRT enzyme inhibition assay was performed for 1 min in a 1 ml reaction volume containing 100 mM Tris-HCl, 5 mM MgSO4, 1 mM PRPP, 0.04 mM guanine at pH 7.4 [41]. An extinction coefficient of 4.2 was used.
# [1] = target: Leishmania tarentolae hypoxanthine-guanine phosphoribosyltransferase (Leishmania tarentolae); assay: crystal structure; co-crystallized with GMP in 19% PEG 4000, 20.6% isopropanol, 5% glycerol, 95 mM tri-sodium citrate, pH 5.6; space group P212121; two monomers (chains A and B) in the asymmetric unit; 2.1 Å
# [2] = recombinant L. tarentolae HGPRT, 1 min, 1 mM PRPP, 0.04 mM guanine, pH 7.4, six inhibitor concentrations in triplicate, read-out: IC50
# [3] = IC50, recombinant L. tarentolae HGPRT, 1 min, 1 mM PRPP, 0.04 mM guanine, pH 7.4, six inhibitor concentrations in triplicate
compound,measurement,setting,value
Cc1cnc(=O)[nH]c1N [5-metilcitosine],IC50,Leishmania HGPRT; [2],412 µM
O=c1[nH]c(=O)n([C@H]2C[C@H](O)[C@@H](CO)O2)cc1Br [5-bromodeoxiuridine],IC50,Leishmania HGPRT; [2],350 µM
O=C(O)c1cc(=O)[nH]c(=O)[nH]1 [Orotic acid],IC50,Leishmania HGPRT; [3],432 µM
Nc1ncnc2c1ccn2[C@@H]1O[C@H](CO)[C@@H](O)[C@H]1O [tubercidine],IC50,Leishmania HGPRT; [2],533 µM
Nc1nc(Cl)c2[nH]cnc2n1 [6-cloroguanine],IC50,Leishmania HGPRT; [2],838 µM
Oc1ncnc2[nH]ncc12 [allopurinol],IC50,"Leishmania HGPRT; IC50, Leishmania HGPRT, approximate value stated in text",~200 µM
same,IC50,Leishmania HGPRT; [3],194 µM
Nc1nc2c(nc(N)n2[C@@H]2O[C@H](CO)[C@@H](O)[C@H]2O)c(=O)[nH]1 [8-aminoguanosine],IC50,Leishmania HGPRT; [3],94 µM
Leishmania tarentolae hypoxanthine-guanine phosphoribosyltransferase (enzyme),stoichiometry N,[1],2
azaadenine,IC50,Leishmania HGPRT; [2],210 µM
O=c1[nH]cnc2c([C@@H]3O[C@H](CO)[C@@H](O)[C@H]3O)n[nH]c12 [formicin B],IC50,Leishmania HGPRT; [2],260 µM
CO/N=C(\C(=O)N[C@@H]1C(=O)N2C(C(=O)O)=C(COC(C)=O)CS[C@H]12)c1csc(N)n1 [cefotaxime],IC50,Leishmania HGPRT; [3],180 µM
